Values quoted from earlier work, collected in publication PMC3826776 (Bioorganic & medicinal chemistry letters, 2011).

Experiments:
[1] = tested on: brain p-glycoprotein efflux pump (P-gp); conditions: stated without reference
[2] = tested on: mGluR5; conditions: read-out: IC50 (literature values); literature value
[3] = target: mGluR5; conditions: read-out: Ki (literature values); literature value

In the case of Cc1nc(C#Cc2cccnc2)cs1 [MTEP, 3-[(2-methyl-1,3-thiazol-4yl)-ethynyl]-pyridine], the P-gp substrate [1] is given as “not P-gp substrates”.
For Cc1cccc(C#Cc2ccccc2)n1 [MPEP, 2-methyl-6-(phenylethynyl)-pyridine], the IC50 [2] is given as 2 nM, the Ki [3] is given as 12 nM and the P-gp substrate [1] is given as “not P-gp substrates”.
